Measured values from patent publication US12084523B2, “Ubiquitin high affinity cyclic peptides and methods of use thereof” (TECHNION RESEARCH & DEVELOPMENT FOUNDATION LIMITED, priority 2018, dated 2024).
Read-outs that look alike come from different tables or passages of the source. No end group written: not given here.

Experiments:
[1] = biological target: T1, K48-Ub2 (Homo sapiens, UniProt P0CG47); assay: SPR binding of cyclic peptides to K48-linked di-ubiquitin
T1 construct: solid phase peptide synthesis of Ub monomers (modified as required); made in house; host or cells: total chemical synthesis (SPPS, isopeptide ligation, desulfurization)
Method: The interactions between cyclic peptides: U2i, U2ii, U4i, U4ix and Ub1, ^K48Ub2 and ^K48Ub4, were determined using BIACORE T100 instrument (GE healthcare) equipped with a biotin CAPture kit Series S chip. The buffer in all experiments contained 50 mM HEPES, pH 7.3, 150 mM NaCl, 0.05% Tween20, 2 mM DTT with 0.2% DMSO. Biotinylated Ub1, ^K48Ub2 and ^K48Ub4 were loaded to approximately equal molar amounts on the SPR chip, and various concentrations of cyclic peptides were flowed over at 100 μL/sec for 120 sec, before initiation of dissociation by flowing buffer over at 100 μL/sec for further 700 sec. Traces were fit to the simplest, two-state model for binding. Association was fit to a single exponential assuming pseudo-first order conditions, whereas the dissociation trace was fit to single exponential plus a drift term.
Each peptide was flowed over Ub1, ^K48Ub2 and ^K48Ub2 immobilized on SPR chips.

[2] = biological target: T2, ^K48Ub4 (Homo sapiens, UniProt P0CG47); assay: SPR binding of cyclic peptides to K48-linked tetra-ubiquitin
T2 construct: solid phase peptide synthesis of Ub monomers (modified as required); made in house
Method: Surface Plasmon Resonance (SPR)
The interactions between cyclic peptides: U2i, U2ii, U4i, U4ix and Ub1, ^K48Ub2 and ^K48Ub4, were determined using BIACORE T100 instrument (GE healthcare) equipped with a biotin CAPture kit Series S chip. The buffer in all experiments contained 50 mM HEPES, pH 7.3, 150 mM NaCl, 0.05% Tween20, 2 mM DTT with 0.2% DMSO. Biotinylated Ub1, ^K48Ub2 and ^K48Ub4 were loaded to approximately equal molar amounts on the SPR chip, and various concentrations of cyclic peptides were flowed over at […] for 120 sec, before initiation of dissociation by flowing buffer over at […] for further 700 sec. Traces were fit to the simplest, two-state model for binding. Association was fit to a single exponential assuming pseudo-first order conditions, whereas the dissociation trace was fit to single exponential plus a drift term. Finally, due to the poor quality of the traces for U4ix binding ^K48Ub2, the amplitude of the association kinetic trace at different concentrations of peptide was fit to estimate the lower bound for KD.
Each peptide was flowed over Ub1, ^K48Ub2 and […] immobilized on SPR chips. There was no detectable binding to Ub1 for any of the peptides, as expected, as Ub1 binding was explicitly selected against during the RaPID protocol. […] However, Ub2i and Ub2ii also strongly bound ^K48Ub4, with a low apparent KD and an increased SPR response (FIG. 1E). This was consistent with a higher stoichiometry of binding to the tetramer, which could be explained by additional binding sites in ^K48Ub4. Indeed, the ^K48Ub2 structure can be superimposed twice on the ^K48Ub4 crystal structure (FIG. 10). […] However, similar to Ub2i and Ub2ii, Ub4i also bound ^K48Ub2. This was perhaps unsurprising, given the high sequence identity between Ub4i and Ub2i.

[3] = tested on: USP2; assay: In vitro deubiquitination assay, USP2 with K48-linked di-Ub; assay type: biochemical; settings: di-Ub as the substrate
Method: (§1) In Vitro Deubiquitination Assay
(§2) In vitro deubiquitination reactions were performed in a Tris buffer (50 mM TRIS, 1 mM TCEP, pH 7.7), containing 2 μM ^K48Ub2/4, then the specific DUB (50 mM Tris, 0.5 mM EDTA, 1 mM TCEP and 0.5 mg/ml ovalbumin, pH 7.5) was added. The reaction mixtures were incubated at 37° C. and at the indicated time points the reactions were stopped by taking aliquots and mixed them with 3× sample buffer and boiling. The same amounts were loaded on 14% SDS-PAGE, electro-blotted to nitrocellulose membrane and probed with an anti-Ub antibody. Bands were quantified with Image Quant LAS 4000 (GE Healthcare).
(§3) The inventors further chose to examine the effect of these cyclic peptides on two DUBs: OTUB1, a K48-linkage chain specific DUB, and USP2, which cleaves most Ub chains without specificity, using K48-linked di- and tetra-Ub chains as substrates.

[4] = biological target: T3, ^K63Ub2 (Homo sapiens, UniProt P0CG47, K63R); assay: NMR titration with K63-linked di-Ub; assay type: binding; settings: up to 2:1 peptide:Ub2
T3 construct: Recombinant Ub monomers carrying chain-terminating mutations; made in house
Method: (§4) All NMR studies were performed on Bruker Avance III 600 MHz spectrometer equipped with TCI cryoprobe. The sample temperature was set to 23° C. for Ub2ii binding studies or 25° C. for Ub4ix studies, unless indicated otherwise. The protein (monomeric Ub or Ub chains) samples were prepared in 20 mM sodium phosphate buffer (pH 6.8) containing 5-10% D20 and 0.02% (w/v) NaN3. The Ub2ii peptide was dissolved in deuterated DMSO (up to 20 mM concentration) and titrated in μL amounts into 50 μM ^15N-Ub^WT or K63-linked Ub2 (^15N-enriched in the distal domain) to two molar equivalents. Ub2ii was titrated into 100 μM solutions of proximally- or distally-^15N-enriched ^K48Ub2 to 1:1 or 1:1.3 molar ratio, respectively, as well as into 200 μM ^K48Ub2 with the ^13C/^15N-enriched proximal or distal Ub unit. Ub4ix titration into K48-linked Ub2, Ub3, and Ub4 was performed in a similar manner, with the starting Ub chain concentration of 200 μM; the chain/peptide molar ratio at the endpoint varied from 1:1 (Ub2) to 1:1.5 or 1:2 for Ub3 and Ub4. Several of these titrations were performed twice and at differing protein concentrations, to verify the reproducibility of the observed spectral changes. Separately, a similar amount of DMSO was added to ^15N-labeled Ub to verify that the presence of DMSO in the peptide-containing stock solution had negligible effect on Ub spectra. […]

[5] = biological target: T4, monomeric Ub (Homo sapiens, UniProt P0CG47); assay: NMR titration with monomeric Ub; assay type: binding; settings: compared with ^K48Ub2
T4 construct: made in house
Method: as §4

[6] = tested on: USP2; assay: In vitro deubiquitination assay, USP2 with K48-linked tetra-Ub; assay type: biochemical; settings: tetra-Ub chain, after removal of the distal Ub (tri-Ub)
Method: as §1, §2, §3

[7] = tested on: K48-linked Ub elongation on Ring1B; assay: In vitro K48-linked Ub elongation on Ring1B (western blot); assay type: biochemical
[8] = tested on: 26S proteasome; assay: In vitro proteasome degradation assay of HA-α-globin-K48-linked tetra-Ub; assay type: biochemical; settings: 5.3 μM peptide
[9] = biological target: T1, K48-Ub2; assay: Deep mutational scanning of J08_mClBz (relative enrichment, MiSeq); assay type: binding; settings: single mutation of J08_mClBz
Text: FIG. 36 is a bar graph showing relative enrichment (log2 E) versus single mutations based on deep scanning (Step 2b in FIG. 34B). E=Positive fraction %/Input fraction % according MiSeq sequencing results. Bars of positive values and negative values indicate potentially favorable and unfavorable mutations, respectively.
Mutation of Leu6 seemed highly flexible which allowed its replacement by either nonpolar or polar residues. […] Based on this information, the inventors prepared nine peptides containing F9Y mutations.

[10] = SPR, target ^K48Ub2, read-out: KD
[11] = range stated in the description, 'as exemplified', read-out: dimeric Ub binding affinity KD
[12] = SPR, target ^K48Ub4, read-out: KD
[13] = range stated in the description, 'as exemplified', read-out: tetrameric Ub binding affinity KD

Row | koff ([1]; SPR, target ^K48Ub2) [s⁻¹] | kon ([1]; SPR, target ^K48Ub2) [M⁻¹ s⁻¹] | Kd [1, 10] [nM] | Kd [1, 11] [nM] | koff ([2]; SPR, target ^K48Ub4) [s⁻¹] | kon ([2]; SPR, target ^K48Ub4) [M⁻¹ s⁻¹] | Kd [2, 12] [nM] | Kd [2, 13] [nM] | Compound | inhibition of USP2 [3] [%] | inhibition of proteasomal degradation of α-globin-K48-linked tetra-Ub [8] | further results
1 | 0.024 | 593000 | 40 ± 12 | 20 to 40 | 0.011 | 779000 | 14 | 15 to 25 | CC(C)C[C@@H]1NC(=O)[C@H](CC(N)=O)NC(=O)[C@H](CC(=O)O)NC(=O)[C@H](Cc2ccccc2)NC(=O)[C@H](Cc2c[nH]c3ccccc23)NC(=O)CNC(=O)[C@@H](Cc2c[nH]c3ccccc23)NC(=O)CSC[C@@H](C(=O)NCC(N)=O)NC(=O)[C@H](Cc2c[nH]cn2)NC(=O)[C@H]([C@@H](C)O)NC(=O)[C@H](C(C)C)NC(=O)[C@H](Cc2ccc(O)cc2)NC(=O)[C@H](Cc2c[nH]c3ccccc23)NC(=O)[C@H](Cc2ccc(O)cc2)NC1=O [Ub2i] | ~40 | – | –
2 | 0.016 | 489000 | 33 ± 8 | 30 to 50 | 0.012 | 877000 | 14 | 10 to 20 | CC(C)C[C@@H]1NC(=O)[C@H](Cc2ccc(O)cc2)NC(=O)[C@H](Cc2ccc(O)cc2)NC(=O)[C@H](Cc2ccc(O)cc2)NC(=O)[C@H](CCC(=O)O)NC(=O)[C@H](CCCNC(=N)N)NC(=O)[C@H](CC(=O)O)NC(=O)[C@H](Cc2ccc(O)cc2)NC(=O)[C@H](Cc2c[nH]c3ccccc23)NC(=O)[C@@H](Cc2c[nH]c3ccccc23)NC(=O)CSC[C@@H](C(=O)NCC(N)=O)NC(=O)CNC(=O)[C@H](Cc2ccc(O)cc2)NC(=O)CNC1=O [Ub2ii] | ~40 | – | binding to K63-linked di-Ub (NMR) [4]: non-specific and much weaker; binding to monomeric Ub (NMR) [5]: much weaker binding
3 | 0.024 | 262000 | 91 | 85 to 115 | 0.011 | 407000 | 26 | 20 to 35 | CC(C)C[C@@H]1NC(=O)[C@H](CC(=O)O)NC(=O)[C@H](CC(=O)O)NC(=O)[C@H](Cc2ccccc2)NC(=O)[C@H](Cc2c[nH]c3ccccc23)NC(=O)CNC(=O)[C@@H](Cc2c[nH]c3ccccc23)NC(=O)CSC[C@@H](C(=O)NCC(N)=O)NC(=O)[C@H](Cc2ccc(O)cc2)NC(=O)[C@H](C)NC(=O)[C@H](C(C)C)NC(=O)[C@H](Cc2ccccc2)NC(=O)[C@H](CC(C)C)NC(=O)[C@H](Cc2ccc(O)cc2)NC1=O [Ub4i] | ~40 | – | Kd ([1]; text and figure legend, K48-Ub2, read-out: KD / binding affinity): 90 nM; inhibition of USP2 [6]: strong inhibition
4 | – | – | – | – | – | – | – | – | *FQLWOHAIALCG [Ub4_e] | – | clear inhibition | inhibition of K48-linked Ub elongation on Ring1B [7]: inhibit
5 | – | – | – | – | – | – | – | – | *FQYWOYATGVCG [Ub4_a] | – | clear inhibition | inhibition of K48-linked Ub elongation on Ring1B [7]: inhibit
6 | – | – | – | – | – | – | – | – | *GWFDDLYLYVAYC [J08_mClBz_F9Y] | – | – | fold improvement of binding affinity ([1]; from J08_mClBz): 17 fold; relative enrichment ratio [9]: > 5
7 | – | – | – | – | – | – | – | – | M*GWFDDLYLFVAY-CG [J08_mClBz] | – | – | fold improvement of binding affinity ([1]; compared with U4i (chloroacetyl-cyclized peptide of same sequence)): 9 fold
8 | – | – | – | – | – | – | – | – | linear Ub4ix: uncyclized/linear form of Ub4ix (WLYLDDSGDWWICG; not fully specified (residue 1)) | – | no inhibition | –
